Experimental findings from PubChem BioAssay AID192 (DTP/NCI, 2004) are described below.

Where “and” joins values, the source holds several entries; their conditions need not be identical. Identical values can stand only once. Toxic doses and inconclusive results are not listed.

The experiment concerns BDF1 mice, B16 melanoma ip, median survival T/C. The experiment is described as follows: NCI In Vivo Anticancer Drug Screen. Data for tumor model B16 Melanoma (intraperitoneal) in B6D2F1 (BDF1) mice. The settings on record: endpoint: median survival time, higher = longer survival. In a few lines: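 Values are ratios of treated (T) to vehicle-control (C) measurements of survival or tumor size in tumor-bearing mice.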

With `CCC1(O)CC2CN(CCc3c([nH]c4ccccc34)C(C(=O)OC)(c3cc4c(cc3OC)N(C)C3C(O)(C(N)=O)C(O)C5(CC)C=CCN6CCC43C65)C2)C1` (stereo unspecified) (tested in a mixture with another compound), the T/C (dose: 0.12 mg/kg/injection, schedule: Q04DX003 (ip), vehicle: water) is 115 % of control; the T/C (dose: 0.13 mg/kg/injection, schedule: Q01DX009 (ip), vehicle: water) was 162 % of control; the T/C (dose: 0.18 mg/kg/injection, schedule: Q04DX003 (ip), vehicle: saline) was 159 % of control; the T/C (dose: 0.22 mg/kg/injection, schedule: Q01DX009 (ip), vehicle: water) was 183 % of control; the T/C (dose: 0.25 mg/kg/injection, schedule: Q04DX003 (ip), vehicle: saline) was 108 % of control; the T/C (dose: 0.25 mg/kg/injection, schedule: Q04DX003 (ip), vehicle: water) was 115 % of control. Further, the T/C by setting is: (dose: 0.3 mg/kg/injection, schedule: Q04DX003 (ip), vehicle: saline) 177 % of control; (dose: 0.36 mg/kg/injection, schedule: Q01DX009 (ip), vehicle: water) 151 % of control and 184 % of control; (dose: 0.39 mg/kg/injection, schedule: Q04DX003 (ip), vehicle: saline) 176 % of control; (dose: 0.5 mg/kg/injection, schedule: Q04DX003 (ip), vehicle: saline) 109 % of control and 236 % of control; (dose: 0.5 mg/kg/injection, schedule: Q04DX003 (ip), vehicle: water) 118 % of control; (dose: 0.52 mg/kg/injection, schedule: Q04DX003 (ip), vehicle: water) 183 % of control. The T/C was 241 % of control (dose: 0.6 mg/kg/injection, schedule: Q01DX009 (ip), vehicle: water); 119 % of control (dose: 0.6 mg/kg/injection, schedule: Q04DX003 (ip), vehicle: saline); 172 % of control (dose: 0.65 mg/kg/injection, schedule: Q04DX003 (ip), vehicle: saline); 166 % of control and 202 % of control (dose: 0.86 mg/kg/injection, schedule: Q04DX003 (ip), vehicle: water); 168 % of control (dose: 1.0 mg/kg/injection, schedule: Q04DX003 (ip), vehicle: saline); 122 % of control (dose: 1.04 mg/kg/injection, schedule: Q01DX001 (ip), vehicle: water). In addition, the T/C is 206 % of control (dose: 1.08 mg/kg/injection, schedule: Q04DX003 (ip), vehicle: saline); 151 % of control and 275 % of control (dose: 1.44 mg/kg/injection, schedule: Q04DX003 (ip), vehicle: water); 165 % of control (dose: 1.73 mg/kg/injection, schedule: Q01DX001 (ip), vehicle: water); 241 % of control (dose: 1.8 mg/kg/injection, schedule: Q04DX003 (ip), vehicle: saline); 180 % of control (dose: 2.0 mg/kg/injection, schedule: Q04DX003 (ip), vehicle: saline); 166 % of control (dose: 2.9 mg/kg/injection, schedule: Q01DX001 (ip), vehicle: water). The T/C (dose: 4.0 mg/kg/injection, schedule: Q04DX003 (ip), vehicle: saline) is 181 % of control; the T/C (dose: 4.8 mg/kg/injection, schedule: Q01DX001 (ip), vehicle: water) was 152 % of control and 194 % of control; the T/C (dose: 8.0 mg/kg/injection, schedule: Q01DX001 (ip), vehicle: water) was 211 % of control; the T/C (dose: 37.5 micrograms/kg/injection, schedule: Q01DX009 (ip), vehicle: water) is 98 % of control; the T/C (dose: 60.0 micrograms/kg/injection, schedule: Q01DX009 (ip), vehicle: saline) was 151 % of control; the T/C (dose: 75.0 micrograms/kg/injection, schedule: Q01DX009 (ip), vehicle: water) is 107 % of control. Also, the T/C runs as follows: (dose: 100.0 micrograms/kg/injection, schedule: Q01DX009 (ip), vehicle: saline) 152 % of control; (dose: 130.0 micrograms/kg/injection, schedule: Q01DX009 (ip), vehicle: water) 120 % of control; (dose: 150.0 micrograms/kg/injection, schedule: Q01DX009 (ip), vehicle: water) 111 % of control; (dose: 170.0 micrograms/kg/injection, schedule: Q01DX009 (ip), vehicle: saline) 226 % of control; (dose: 216.0 micrograms/kg/injection, schedule: Q01DX009 (ip), vehicle: saline) 173 % of control; (dose: 216.0 micrograms/kg/injection, schedule: Q01DX009 (ip), vehicle: water) 150 % of control and 165 % of control. For the same compound, the T/C is 123 % of control (dose: 300.0 micrograms/kg/injection, schedule: Q01DX009 (ip), vehicle: water); 183 % of control (dose: 360.0 micrograms/kg/injection, schedule: Q01DX009 (ip), vehicle: saline); 155 % of control (dose: 360.0 micrograms/kg/injection, schedule: Q01DX009 (ip), vehicle: water); 187 % of control and 207 % of control (dose: 389.0 micrograms/kg/injection, schedule: Q04DX003 (ip), vehicle: saline); 191 % of control (dose: 600.0 micrograms/kg/injection, schedule: Q01DX009 (ip), vehicle: saline); 155 % of control and 175 % of control (dose: 600.0 micrograms/kg/injection, schedule: Q01DX009 (ip), vehicle: water). Further, the T/C is 179 % of control and 258 % of control (dose: 648.0 micrograms/kg/injection, schedule: Q04DX003 (ip), vehicle: saline); 161 % of control and 214 % of control and 225 % of control (dose: 1080.0 micrograms/kg/injection, schedule: Q04DX003 (ip), vehicle: saline); 195 % of control and 248 % of control and 303 % of control (dose: 1800.0 micrograms/kg/injection, schedule: Q04DX003 (ip), vehicle: saline); 152 % of control and 243 % of control and 308 % of control (dose: 3000.0 micrograms/kg/injection, schedule: Q04DX003 (ip), vehicle: saline).
With `CC(=O)c1cccc(NC2C(N)C(NC(=O)N(C)C)(C(C)O)C(C)(O)C2(O)COC(=O)c2c(C)cccc2O)c1` (stereo unspecified), the T/C by setting is: (dose: 0.3 mg/kg/injection, schedule: Q01DX009 (ip), vehicle: saline with Tween-80) 115 % of control; (dose: 0.3 mg/kg/injection, schedule: Q01DX009 (ip), vehicle: saline) 113 % of control; (dose: 0.5 mg/kg/injection, schedule: Q01DX009 (ip), vehicle: Klucel (hydroxypropylcellulose) (HPC)) 116 % of control; (dose: 0.6 mg/kg/injection, schedule: Q01DX009 (ip), vehicle: saline) 113 % of control; (dose: 1.0 mg/kg/injection, schedule: Q01DX009 (ip), vehicle: Klucel (hydroxypropylcellulose) (HPC)) 113 % of control; (dose: 1.2 mg/kg/injection, schedule: Q01DX009 (ip), vehicle: saline) 122 % of control.
Consider `O=C(Nc1nncs1)c1ccncc1`, for which the T/C runs as follows: (dose: 12.5 mg/kg/injection, schedule: Q01DX009 (ip), vehicle: saline with Tween-80) 100 % of control; (dose: 25.0 mg/kg/injection, schedule: Q01DX009 (ip), vehicle: saline with Tween-80) 101 % of control; (dose: 50.0 mg/kg/injection, schedule: Q01DX009 (ip), vehicle: saline with Tween-80) 109 % of control; (dose: 100.0 mg/kg/injection, schedule: Q01DX009 (ip), vehicle: saline with Tween-80) 113 % of control; (dose: 200.0 mg/kg/injection, schedule: Q01DX009 (ip), vehicle: saline with Tween-80) 109 % of control.
Take `c1cc[c]([Sn]([c]2ccccc2)([c]2ccccc2)[n]2cccc2)cc1`: the T/C (dose: 6.25 mg/kg/injection, schedule: Q01DX009 (ip), vehicle: saline) was 115 % of control.
Consider `OCC1(CO)COC2(CCCCC2)N1`, for which the T/C was 110 % of control (dose: 12.5 mg/kg/injection, schedule: Q01DX009 (ip), vehicle: saline); 116 % of control (dose: 25.0 mg/kg/injection, schedule: Q01DX009 (ip), vehicle: saline); 109 % of control (dose: 50.0 mg/kg/injection, schedule: Q01DX009 (ip), vehicle: saline); 103 % of control (dose: 100.0 mg/kg/injection, schedule: Q01DX009 (ip), vehicle: saline); 112 % of control (dose: 200.0 mg/kg/injection, schedule: Q01DX009 (ip), vehicle: saline); 108 % of control (dose: 400.0 mg/kg/injection, schedule: Q01DX009 (ip), vehicle: saline).
Regarding `COc1cc2c(c(OC)c1O)-c1ccc(OC)c(=O)cc1[C@@H](NC(=O)C(F)(F)F)CC2`, the T/C was 121 % of control (dose: 0.62 mg/kg/injection, schedule: Q01DX009 (ip), vehicle: Klucel (hydroxypropylcellulose) (HPC)); 117 % of control and 124 % of control (dose: 1.25 mg/kg/injection, schedule: Q01DX009 (ip), vehicle: Klucel (hydroxypropylcellulose) (HPC)); 116 % of control (dose: 2.5 mg/kg/injection, schedule: Q01DX009 (ip), vehicle: Klucel (hydroxypropylcellulose) (HPC)); 118 % of control (dose: 5.0 mg/kg/injection, schedule: Q01DX009 (ip), vehicle: Klucel (hydroxypropylcellulose) (HPC)).
For `CC[C@@H]1C[C@@H]2CN3CCc4c([nH]c5ccc(OC)cc45)C(C(=O)OC)(C2)C13`, the T/C reads like this: (dose: 50.0 mg/kg/injection, schedule: Q01DX009 (ip), vehicle: Klucel (hydroxypropylcellulose) (HPC)) 102 % of control; (dose: 100.0 mg/kg/injection, schedule: Q01DX009 (ip), vehicle: Klucel (hydroxypropylcellulose) (HPC)) 106 % of control; (dose: 200.0 mg/kg/injection, schedule: Q01DX009 (ip), vehicle: Klucel (hydroxypropylcellulose) (HPC)) 111 % of control.
